Experiments:
Settings in all cases: route intragastric
Mus musculus [1] = experiment: Inhibition of cyclophosphamide-induced increase in micronuclei/polychromatic erythrocytes count in mouse at 18.38 mg/kg administered intragastrically for 1 week by micronuclei assay; format: functional; parameters: scale not given: the % may be the effect or the level left
Mus musculus [2] = experiment: Antimutagenic activity in Albino mouse brain assessed as DNA level per gram of tissue at 14.16 mg/kg administered intragastrically for 1 week; format: functional
Mus musculus [3] = experiment: Antimutagenic activity in Albino mouse kidney assessed as DNA level per gram of tissue at 14.16 mg/kg administered intragastrically for 1 week; format: functional
Mus musculus [4] = experiment: Antimutagenic activity in Albino mouse liver assessed as DNA level per gram of tissue at 14.16 mg/kg administered intragastrically for 1 week; format: functional
Mus musculus [5] = experiment: Antimutagenic activity in Albino mouse testes assessed as DNA level per gram of tissue at 14.16 mg/kg administered intragastrically for 1 week; format: functional, Testis
Mus musculus [6] = experiment: Antimutagenic activity in Albino mouse brain assessed as RNA level per gram of tissue at 14.16 mg/kg administered intragastrically for 1 week; format: functional
Mus musculus [7] = experiment: Antimutagenic activity in Albino mouse kidney assessed as RNA level per gram of tissue at 14.16 mg/kg administered intragastrically for 1 week; format: functional
Mus musculus [8] = experiment: Antimutagenic activity in Albino mouse liver assessed as RNA level per gram of tissue at 14.16 mg/kg administered intragastrically for 1 week; format: functional
Mus musculus [9] = experiment: Antimutagenic activity in Albino mouse testes assessed as RNA level per gram of tissue at 14.16 mg/kg administered intragastrically for 1 week; format: functional, Testis
Mus musculus [10] = experiment: Antimutagenic activity in mouse brain assessed as protein level per gram of tissue at 14.16 mg/kg administered intragastrically for 1 week; format: functional
Mus musculus [11] = experiment: Antimutagenic activity against cyclophosphamide-induced mutagenicity in mouse testes assessed as protein level per gram of tissue at 14.16 mg/kg administered intragastrically for 1 week; format: functional, Testis
Mus musculus [12] = experiment: Antimutagenic activity in mouse kidney assessed as protein level per gram of tissue at 14.16 mg/kg administered intragastrically for 1 week; format: functional
Mus musculus [13] = experiment: Antimutagenic activity in mouse liver assessed as protein level per gram of tissue at 14.16 mg/kg administered intragastrically for 1 week; format: functional
Mus musculus [14] = experiment: Antimutagenic activity in mouse brain assessed as peroxidase activity per microgram of tissue at 14.16 mg/kg administered intragastrically for 1 week; format: functional
Mus musculus [15] = experiment: Antimutagenic activity in mouse brain assessed as cholinesterase activity per microgram of tissue at 14.16 mg/kg administered intragastrically for 1 week; format: functional
Mus musculus [16] = experiment: Antimutagenic activity against cyclophosphamide-induced mutagenicity in Albino mouse kidney assessed as DNA level per gram of tissue at 14.16 mg/kg administered intragastrically for 1 week; format: functional
Mus musculus [17] = experiment: Antimutagenic activity against cyclophosphamide-induced mutagenicity in Albino mouse brain assessed as DNA level per gram of tissue at 14.16 mg/kg administered intragastrically for 1 week; format: functional
Mus musculus [18] = experiment: Antimutagenic activity against cyclophosphamide-induced mutagenicity in Albino mouse liver assessed as DNA level per gram of tissue at 14.16 mg/kg administered intragastrically for 1 week; format: functional
Mus musculus [19] = experiment: Antimutagenic activity against cyclophosphamide-induced mutagenicity in Albino mouse testes assessed as DNA level per gram of tissue at 14.16 mg/kg administered intragastrically for 1 week; format: functional, Testis
Mus musculus [20] = experiment: Antimutagenic activity against cyclophosphamide-induced mutagenicity in Albino mouse brain assessed as RNA level per gram of tissue at 14.16 mg/kg administered intragastrically for 1 week; format: functional
Mus musculus [21] = experiment: Antimutagenic activity against cyclophosphamide-induced mutagenicity in Albino mouse kidney assessed as RNA level per gram of tissue at 14.16 mg/kg administered intragastrically for 1 week; format: functional
Mus musculus [22] = experiment: Antimutagenic activity against cyclophosphamide-induced mutagenicity in Albino mouse liver assessed as RNA level per gram of tissue at 14.16 mg/kg administered intragastrically for 1 week; format: functional
Mus musculus [23] = experiment: Antimutagenic activity against cyclophosphamide-induced mutagenicity in mouse brain assessed as peroxidase activity per microgram of tissue at 14.16 mg/kg administered intragastrically for 1 week; format: functional
Mus musculus [24] = experiment: Antimutagenic activity against cyclophosphamide-induced mutagenicity in mouse brain assessed as cholinesterase activity per microgram of tissue at 14.16 mg/kg administered intragastrically for 1 week; format: functional
Mus musculus [25] = experiment: Antimutagenic activity against cyclophosphamide-induced mutagenicity in Albino mouse testes assessed as RNA level per gram of tissue at 14.16 mg/kg administered intragastrically for 1 week; format: functional, Testis
Mus musculus [26] = experiment: Antimutagenic activity against cyclophosphamide-induced mutagenicity in mouse brain assessed as protein level per gram of tissue at 14.16 mg/kg administered intragastrically for 1 week; format: functional
Mus musculus [27] = experiment: Antimutagenic activity against cyclophosphamide-induced mutagenicity in mouse kidney assessed as protein level per gram of tissue at 14.16 mg/kg administered intragastrically for 1 week; format: functional

COc1ccc2c(c1)c(CCNC(C)=O)c1sc(CC#N)nn12
Activity (Mus musculus [1]): 28%
Activity (Mus musculus [2]): 0.33 mg
Activity (Mus musculus [3]): 0.28 mg
Activity (Mus musculus [4]): 0.27 mg
Activity (Mus musculus [5]): 0.32 mg
Activity (Mus musculus [6]): 0.19 mg
Activity (Mus musculus [7]): 0.23 mg
Activity (Mus musculus [8]): 0.3 mg
Activity (Mus musculus [9]): 0.21 mg
Activity (Mus musculus [10]): 2.98 g
Activity (Mus musculus [11]): 3.49 g
Activity (Mus musculus [12]): 7.87 g
Activity (Mus musculus [13]): 9.95 g
Activity (Mus musculus [14]): 1.06 U/min
Activity (Mus musculus [15]): 3.3 U
Activity (Mus musculus [16]): 0.35 mg
Activity (Mus musculus [17]): 0.21 mg
Activity (Mus musculus [18]): 0.25 mg
Activity (Mus musculus [19]): 0.28 mg
Activity (Mus musculus [20]): 0.16 mg
Activity (Mus musculus [21]): 0.22 mg
Activity (Mus musculus [22]): 0.34 mg
Activity (Mus musculus [23]): 1.24 U/min
Activity (Mus musculus [24]): 2.73 U
Activity (Mus musculus [25]): 0.19 mg
Activity (Mus musculus [26]): 2.71 g
Activity (Mus musculus [27]): 4.94 g

Source: ChEMBL document CHEMBL1149819, “Synthesis and in vivo anti-mutagenic activity of novel melatonin derivatives” (2008)
